Earlier results on three compounds are cited in patent publication US11752142B2, “Oral pharmaceutical compositions of dabigatran etexilate” (Breckenridge Pharmaceutical, Inc., priority 2012, dated 2023).

Counter-ions that a name gives are not always drawn. Like-named read-outs stand apart in the source and are kept apart here.

Assay in data set [1]: not given
The source holds these as a separate data set.

Assay in data set [2]: not given
This is another data set of the same source.

On to `CCCCCCOC(=O)NC(=N)c1ccc(NCc2nc3cc(C(=O)N(CCC(=O)OCC)c4ccccn4)ccc3n2C)cc1` [DEM, dabigatran etexilate mesylate], for which the aqueous solubility entry by setting is: (acidic media) “rather high solubility”; (neutral and basic media) “very poor solubility”. Besides, the BCS class entry (poor aqueous solubility but good membrane permeability) was “BCS Class II”. Moreover, the “sensitivity to light irradiation” value in data set [1] (light irradiation) is recorded as “not sensitive to light irradiation”. Further, the stability entry in data set [1] (solid state) is “stable in the solid state”.

Turning to `CCCCCCOC(=O)NC(=N)c1ccc(NCc2nc3cc(C(=O)N(CCC(=O)OCC)c4ccccn4)ccc3n2C)cc1` [dabigatran etexilate, 3-[(2-{4-(hexyloxycarbonylamino-imino-methyl)-phenylamino]methyl}-1-methyl-1H-benzimidazol-5-carbonyl)-pyridin-2-yl-amino-propionic acid ethyl ester], the Tmax in data set [2] (absorption of the active) was 45 minutes-1 hour.

For `[H]/N=C(/N)c1ccc(NCc2nc3cc(C(=O)N(CCC(=O)O)c4ccccn4)ccc3n2C)cc1` [dabigatran], the absolute bioavailability in data set [2] (dabigatran following oral administration of dabigatran etexilate) is listed as 3-7%. In data set [2] (following oral administration of dabigatran etexilate), the elimination half life is 12 to 17 h.
